From publication PMC4840125, “[^18F]tetrafluoroborate as a PET tracer for the sodium/iodide symporter: the importance of specific activity” (EJNMMI Research, 2016)

Biological target: T1, human sodium/iodide symporter (hNIS) (Homo sapiens, UniProt Q92911)
T1 construct: gene SLC5A5; hNIS stably transfected in HCT116 human colon carcinoma cells (HCT116-hNIS-C19)
T1 sequence (Q92911 1-643): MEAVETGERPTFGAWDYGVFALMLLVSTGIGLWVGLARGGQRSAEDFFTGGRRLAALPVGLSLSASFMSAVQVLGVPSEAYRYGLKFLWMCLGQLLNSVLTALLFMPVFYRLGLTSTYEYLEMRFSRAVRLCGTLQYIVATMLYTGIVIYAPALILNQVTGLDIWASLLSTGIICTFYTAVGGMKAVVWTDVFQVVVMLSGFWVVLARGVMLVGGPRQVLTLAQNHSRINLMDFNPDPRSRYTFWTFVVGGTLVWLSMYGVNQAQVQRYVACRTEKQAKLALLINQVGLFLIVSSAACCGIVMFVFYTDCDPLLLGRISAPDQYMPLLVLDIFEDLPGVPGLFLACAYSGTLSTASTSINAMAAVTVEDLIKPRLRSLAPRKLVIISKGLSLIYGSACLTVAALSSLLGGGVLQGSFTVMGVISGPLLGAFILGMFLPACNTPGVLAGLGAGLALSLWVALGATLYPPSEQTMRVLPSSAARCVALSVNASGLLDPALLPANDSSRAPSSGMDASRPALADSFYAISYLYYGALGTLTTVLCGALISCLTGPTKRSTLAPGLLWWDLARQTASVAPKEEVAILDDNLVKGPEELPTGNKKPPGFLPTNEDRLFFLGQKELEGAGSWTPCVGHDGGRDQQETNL
Experiment: inhibition of […]BF4- uptake in hNIS-transfected cells, gamma counting
Format: cell-based

IC50: 4.7 µM
Compound: F[B-](F)(F)F [[19F]BF4-]
